Like-named read-outs stand apart in the source and are kept apart here.
What was measured:
[1] = tested on: HCT116+3+5 and G5 cells; assay: Immunofluorescence staining for active caspase-3; assay type: cell-based, human; conditions: MSH3-deficient cells, FIG. 2H
Procedure: (§1) Immunofluorescence staining—Ten thousand cells were grown on glass coverslips in a 12-well plate. The cells were fixed with 4% paraformaldehyde (pH 7.5) in PBS for 15 minutes, permeabilized with 0.3% Triton X-100 for five minutes, and then blocked with 10% goat serum (Invitrogen, Carlsbad, Calif.) for one hour. The cells were subsequently incubated with an anti-active caspase-3 antibody (1:500, G748, Promega, Madison, Wis.) an anti-phosphorylated H2AX (pH2AX) antibody (1:5000, JBW301, Millipore Corporation, Billerica, Mass.), or an anti-53BP1 antibody (1:600, ab21083, Abcam, Cambridge, Mass.) for one hour, followed by a secondary antibody (1:800, Alexa Fluor 555 goat anti-mouse or anti-rabbit antibody, Invitrogen) for 40 minutes. Prolong Gold with DAPI (Invitrogen) was used in mounting the medium. The images were obtained using AxioSkop2 multichannel epifluorescence microscope equipped with the AxioVision software (Carl Zeiss, Thornwood, N.Y.).

[2] = tested on: HHUA cells; conditions: MSH3-deficient HHUA versus MSH3-proficient HHUA complemented with chromosome 5; cited from earlier work
[3] = tested on: pH2AX; assay: Immunofluorescence staining for pH2AX foci; assay type: cell-based, human
Procedure: as §1

[4] = tested on: HCT116+3+5 and G5 cells; assay: Proliferation assay (BrdU incorporation); assay type: cell-based, human; conditions: MSH3-deficient cells; FIG. 2G
Procedure: Proliferation assay—The proliferation index was measured by bromodeoxyuridine (BrdU) incorporation in HCT116+3+5 and G5 cells, 48 hours after the initial 24 hour treatment with cisplatin or oxaliplatin (Cell Proliferation ELISA, BrdU, Roche Diagnositics, Indianapolis, Ind.). Experiments were performed in triplicate and data was obtained from three or four independent experiments.

[5] = tested on: HCT116+3+5 and G5 cells; assay: Clonogenic survival after MLH1 siRNA transfection; assay type: cell-based, human
[6] = tested on: HCT116+3+5 and G1 cells; assay: Cell cycle analysis by flow cytometry; assay type: cell-based, human; conditions: MSH3-deficient versus MSH3-proficient cells
Procedure: Cell cycle analysis—One million cells were seeded in 10 cm plates. Once attached, the cell lines were treated with oxaliplatin for 24 hours. After an additional 48 hours, cells were washed twice with cold PBS, fixed in cold 70% ethanol at −20° C. overnight or for several days. The ethanol fixed cells (2×10^6) were subsequently washed with PBS twice and incubated with 300 μl of PBS and 0.15% RNase A for 15 minutes at 37° C. The cells were stained with 75 μg/ml propidium iodide for 30 minutes and then analyzed for DNA content using the FACSCantoII flow cytometer (BD Biosciences, San Jose, Calif.). Cell cycle data was analyzed by the Flowjo software (Tree Star, Ashland, Oreg.).

[7] = tested on: HCT116, HCT116+3, HCT116+3+5, G1, G2 and G5 cells; assay: Clonogenic survival assay in isogenic HCT116-derived cell lines; assay type: cell-based, human
Procedure: (§2) Cell lines and cell culture—The human colon cancer cell lines HCT116, HCT116+ch.3 (HCT116+3), HCT116+ch.3+ch.5 (HCT116+3+5) have been described previously (10,23). HCT116+3+5 cells were stably transfected with a tetracycline-regulated retroviral vector, the TMP (Open Biosystems, Huntsville, Ala.) that encodes shRNA against MSH3. Stable MSH3-deficient clones G1, G2 and G5 were isolated (see results and (23)). HCT116, HCT116+3, and HCT116+3+5 cells were grown in IMDM (Invitrogen, Rockville, Md.) with 10% fetal bovine serum. The G1, G2 and G5 cells were maintained in IMDM with 10% fetal bovine serum and 0.6 μg/ml of puromycin. To turn off the expression of MSH3 shRNA, 1 μg/ml of doxycycline was added to the culture medium.
Clonogenic survival assay—Two hundred cells were seeded in each well of a six-well plate. For the measurement of the cytotoxicity caused by cisplatin or oxaliplatin, the cells were treated with the drugs for 24 hours once the cells were attached to the plate. For the measurement of the cytotoxicity caused by olaparib, cells were continuously treated with the drug during the experiments. After 8-10 days, the number of colonies (colonies with >50 cells) were counted, and the relative change in clonogenic survival of drug-treated versus untreated cells was determined.

[8] = tested on: HCT116+3+5 cells; assay: Clonogenic survival after transient MSH3 siRNA transfection; assay type: cell-based, human; conditions: MSH3 siRNA versus non-targeted siRNA; cisplatin 5 μM and 10 μM, oxaliplatin 2 μM and 5 μM, 48 hours after transfection; FIGS. 3B & 3C
[9] = tested on: 53BP1; assay: Immunofluorescence staining for 53BP1 foci; assay type: cell-based, human; conditions: MSH3-deficient G5 cells after treatment; 5 μM for 6 hours, analyzed after 48 hours; FIGS. 5C & 5D
Procedure: as §1

[10] = tested on: HT29 cells; assay: Clonogenic survival after transient MSH3 siRNA transfection; assay type: cell-based, human; conditions: HT29 cells treated with MSH3 siRNA versus non-targeted siRNA; FIGS. 3E & 3F
[11] = tested on: tumors occurring in MSH2-null mice; conditions: MSH2-null mice versus mice with MSH2 G674D mutations; cited from earlier work
[12] = tested on: MSH3; assay: Western blot analysis of MSH3 expression; assay type: cell-based, human; conditions: G1, G2 and G5 clones; doxycycline 1 μg/ml; densitometry; FIGS. 1A & 1B
Procedure: as §2
Western blot analysis—Proteins from cell lysates were prepared, separated on the SDS-PAGE and transferred to PVDF membranes as described previously (31). Anti-hMSH3 mouse monoclonal antibody (dilution; 1:250, Clone 52, BD Pharmingen, San Jose, Calif.), anti-hMLH1 mouse monoclonal antibody (1:200, G168-728, BD Pharmingen) and anti-β-actin antibody (1:10000, Clone AC-15, Sigma-Aldrich) were used as primary antibodies for the detection of specific proteins. Goat anti-mouse antibody (1:3000, sc-2005, Santa Cruz Biotechnology, Santa Cruz, Calif.) was used as a secondary antibody. […]

[13] = tested on: MSH3-deficient cells; assay: Sensitivity of MSH3-deficient cells to SN-38 (data not shown); assay type: cell-based

O=C1[O][Pt]2([NH][C@@H]3CCCC[C@H]3[NH]2)[O]C1=O [oxaliplatin]
apoptotic fraction (anti-active caspase-3 positive cells) [1]: increased | sensitivity [2]: did not differ | rate of reduction in the number of pH2AX foci-positive cells ([3]; MSH3-deficient G5 versus MSH3-restored G5 and HCT116+3+5, 48 and 72 hours, FIGS. 5A & 5B): lower rate of reduction | number of pH2AX foci-positive cells before and after treatment ([3]; MSH3-proficient versus -deficient cell lines, 5 μM for 6 hours): no differences | cell proliferation (BrdU incorporation) [4]: decreased | sensitivity (clonogenic survival) [5]: more sensitive | degree of cell growth inhibition (decrease in S-phase population) ([6]; FIG. 2E): significantly higher | levels of apoptosis (increase in sub-G1 population) ([6]; FIG. 2F): significantly higher | sensitivity (clonogenic survival) ([7]; MSH3-deficient HCT116, HCT116+3 and G5 versus parental HCT116+3+5, FIG. 2C): significantly more sensitive | sensitivity (clonogenic survival) on restoration of MSH3 ([7]; MSH3-deficient cells (G1, G2, G5) with versus without doxycycline 1 μg/ml, FIG. 2D): restoration of oxaliplatin insensitivity | susceptibility (clonogenic survival) [8]: more susceptible | levels of 53BP1 [9]: Sustained levels | sensitivity (clonogenic survival) [10]: more sensitive

N.N.[Cl][Pt][Cl] [cisplatin]
sensitivity [2]: did not differ | sensitivity (clonogenic survival) ([5]; G5 versus HCT116+3+5, MLH1 down-regulated by siRNA, 2 μM and 5 μM, FIGS. 4C & 4D): more sensitive | resistance of tumors [11]: more resistant | sensitivity (clonogenic survival) ([7]; G1 and G2 clones, data not shown): behaved similarly to G5 | sensitivity (clonogenic survival) on restoration of MSH3 expression ([7]; G5 cells with versus without doxycycline, 5 μM, FIG. 2B): desensitized | sensitivity (clonogenic survival) ([7]; HCT116 versus HCT116+3 cell lines, FIG. 2A): No significant differences | sensitivity (clonogenic survival) ([7]; MSH3-deficient G5 clone versus parental HCT116+3+5, FIG. 2A): more sensitive | resistance (clonogenic survival) ([7]; MSH3-proficient HCT116+3+5 versus HCT116 and HCT116+3, FIG. 2A): higher resistance | susceptibility (clonogenic survival) [8]: more susceptible | sensitivity (clonogenic survival) [10]: more sensitive

C[C@H]1c2cccc(O)c2C(=O)C2=C(O)[C@]3(O)C(=O)C(C(N)=O)=C(O)[C@@H](N(C)C)[C@@H]3[C@@H](O)[C@@H]21 [doxycycline]
MSH3 expression relative to parental HCT116+3+5 [12]: 40-60%

CCc1c2c(nc3ccc(O)cc13)-c1cc3c(c(=O)n1C2)COC(=O)[C@]3(O)CC [SN-38]
sensitization by MSH3 deficiency [13]: sensitized

O=C(c1cc(Cc2n[nH]c(=O)c3ccccc23)ccc1F)N1CCN(C(=O)C2CC2)CC1 [olaparib]
sensitivity (clonogenic survival) ([7]; MSH3-deficient G5 versus MSH3-restored G5 cell line, 2 μM, FIG. 6A): more sensitive

Reference: patent publication US20120207856A1, “MSH3 Expression Status Determines the Responsiveness of Cancer Cells to the Chemotherapeutic Treatment with PARP Inhibitors and Platinum Drugs” (Baylor Research Institute, priority 2011, published 2012)
